In paper PMC11280325, “Design, Synthesis, and Characterization of Novel Thiazolidine-2,4-Dione-Acridine Hybrids as Antitumor Agents” (Molecules, 2024):

How the values were obtained:
[1] = system: A549; experiment: MTT assay, A549; format: cell-based, human; details: Homo sapiens, A549, 48 h, lung adenocarcinoma, 48 h incubation
Procedure: (§1) The human cancer cell lines HeLa (cervical adenocarcinoma), HCT116 (colorectal adenocarcinoma), A2780 (human ovarian adenocarcinoma), A2780cis (human ovarian adenocarcinoma cisplatin-resistant), Jurkat (acute T-lymphoblastic leukemia), and Hep G2 (hepatocellular carcinoma) were cultured in an RPMI 1640 growth medium (Biosera, Kansas City, MO, USA). The cancer cell lines MDA-MB-231 (triple-negative breast adenocarcinoma), A2058 (human melanoma), U87 (human glioblastoma), PATU 8902 (pancreas adenocarcinoma), and A549 (human lung adenocarcinoma) were cultured in a DMEM medium (Biosera, Kansas City, MO, USA). The media were supplemented with 10% fetal bovine serum (FBS) (Invitrogen, Carlsbad, CA, USA) and 1× HyClone™ Antibiotic/Antimycotic Solution (GE Healthcare, Piscataway, NJ, USA).
(§2) To evaluate the IC50 (half-maximal inhibitory concentration) and confirm the antiproliferative activity of the tested substances, we employed the colorimetric MTT assay (3-(4,5-dimethylthiazol-2-yl)-2,5-diphenyltetrazolium bromide) (Sigma-Aldrich Chemie, Steinheim, Germany). The cell lines were seeded in 96-well plates at a density of 5 × 10^3 to 10 × 10^3 cells per well. After 24 h, the tested substances, dissolved in the cultivation medium, were added to the cells at final concentrations of 5, 10, 20, and 50 µmol/L. The cells were then incubated for 48 h under standard cultivation conditions. Following the incubation period, MTT was added to each well. The MTT was metabolized by the cells into insoluble formazan crystals, which were subsequently dissolved by adding 100 µL of 10% SDS. After another 24 h, the absorbance was measured at a wavelength of 540 nm using the automated Cytation™ 3 Cell Imaging Multi-Mode Reader (Biotek, Winooski, VT, USA). The experiments were performed in at least three independent repetitions. IC50 values were calculated using a nonlinear regression method.

[2] = system: PATU; experiment: MTT assay, PATU 8902; format: cell-based, human; details: pancreas adenocarcinoma, 48 h incubation
Procedure: as §1, §2

[3] = system: HCT116; experiment: MTT assay, HCT116; format: cell-based, human; details: colorectal adenocarcinoma, 48 h incubation
Procedure: as §1, §2

[4] = system: HeLa; experiment: MTT assay, HeLa; format: cell-based, human; details: cervical adenocarcinoma, 48 h incubation
Procedure: as §1, §2

[5] = system: Hep G2; experiment: MTT assay, Hep G2; format: cell-based, human; details: Homo sapiens, HepG2, 48 h, hepatocellular carcinoma, 48 h incubation
Procedure: as §1, §2

[6] = system: MCF-10A; experiment: MTT assay, MCF-10A non-cancerous cells; format: cell-based, human; details: non-cancerous epithelial breast cells, 48 h incubation
Procedure: (§3) The non-cancerous cell line MCF-10A (human epithelial breast cells) was cultured in a DMEM F12 medium supplemented with 10% FBS (Invitrogen, Carlsbad, CA, USA), 1× HyClone™ Antibiotic/Antimycotic Solution (GE Healthcare, Piscataway, NJ, USA), insulin, hEGF, and hydrocortisone. The BJ-5ta cells (human dermal fibroblasts) were cultured in a DMEM-M199 4:1 medium mixture, supplemented with 10% FBS and hygromycin B (0.01 mg/mL). The cells were maintained under standard conditions with an atmosphere containing 5% CO2 at 37 °C. Cell viability, estimated by trypan blue exclusion, was consistently greater than 95% before each experiment.
as §2

[7] = system: A2058; experiment: MTT assay, A2058; format: cell-based; details: Homo sapiens, A2058, 48 h, human melanoma, 48 h incubation
Procedure: as §1, §2

[8] = system: A2780; experiment: MTT assay, A2780; format: cell-based, human; details: ovarian adenocarcinoma, 48 h incubation
Procedure: as §1, §2

[9] = system: Bj-5ta; experiment: MTT assay, BJ-5ta non-cancerous fibroblasts; format: cell-based, human; details: Homo sapiens, Fibroblast, 48 h, non-cancerous dermal fibroblasts, 48 h incubation
Procedure: as §3, §2

SMILES	IC50 [1] [µM]	IC50 ([3]; Homo sapiens, HCT-116, 48 h) [µM]	IC50 ([4]; Homo sapiens, HeLa, 48 h) [µM]	IC50 ([8]; Homo sapiens, A2780, 48 h) [µM]	melting point	IC50 [3] [µM]	IC50 [8] [µM]	IC50 [4] [µM]	IC50 ([2]; Homo sapiens, PaTu 8902, 48 h) [µM]	IC50 [5] [µM]	IC50 [6] [µM]	IC50 [7] [µM]	IC50 [9] [µM]	IC50 ([6]; Homo sapiens, MCF-10A, 48 h) [µM]	IC50 [2] [µM]
COc1cc(NC(=O)COc2ccc(/C=C3\SC(=O)N(Cc4c5ccccc5nc5ccccc45)C3=O)cc2)cc(OC)c1 [Compound 7b, 2-(4-{[(5Z)-3-[(Acridin-9-yl)methyl]-2,4-dioxo-1,3-thiazolidin-5-ylidene]methyl}phenoxy)-N-(3,5-dimethoxyphenyl)acetamide]	34.6 ± 5.4	34.5 ± 2.98	11.3 ± 2.75	> 50	280 to 282 °C	–	–	–	> 50	> 50	28.8 ± 2.3	> 50	> 50	–	–
COc1cc(NC(=O)COc2ccc(/C=C3\SC(=O)N(Cc4c5ccccc5nc5ccccc45)C3=O)cc2OC)cc(OC)c1 [Compound 12b, 2-(4-{[(5Z)-3-[(Acridin-9-yl)methyl]-2,4-dioxo-1,3-thiazolidin-5-ylidene]methyl}-2-methoxyphenoxy)-N-(3,5-dimethoxyphenyl)acetamide]	34.5 ± 5.4	–	7.3 ± 3.4	–	264 to 265 °C	10.2 ± 2.1	> 50	–	> 50	> 50	–	> 50	> 50	15.6 ± 2.6	–
COc1cc(/C=C2\SC(=O)N(Cc3c4ccccc4nc4ccccc34)C2=O)ccc1OCC(=O)Nc1ccc([N+](=O)[O-])cc1 [Compound 12d, 2-(4-{[(5Z)-3-[(Acridin-9-yl)methyl]-2,4-dioxo-1,3-thiazolidin-5-ylidene]methyl}-2-methoxyphenoxy)-N-(4-nitrophenyl)acetamide]	31.2 ± 1.1	14.6 ± 1.7	–	> 50	288 to 290 °C	–	–	9.4 ± 0.3	> 50	> 50	–	> 50	> 50	> 50	–
O=C(COc1ccc(/C=C2\SC(=O)N(Cc3c4ccccc4nc4ccccc34)C2=O)cc1)Nc1cc(C(F)(F)F)cc(C(F)(F)F)c1 [Compound 7g, 2-(4-{[(5Z)-3-[(Acridin-9-yl)methyl]-2,4-dioxo-1,3-thiazolidin-5-ylidene]methyl}phenoxy)-N-[3,5-bis(trifluoromethyl)phenyl]acetamide]	18.9 ± 3.85	–	20.9 ± 2.8	> 50	227 to 228 °C (dec.)	18 ± 1.2	–	–	> 50	> 50	> 50	> 50	> 50	–	–
O=C(COc1ccc(/C=C2\SC(=O)N(Cc3c4ccccc4nc4ccccc34)C2=O)cc1)Nc1ccccc1C(F)(F)F [Compound 7e, 2-(4-{[(5Z)-3-[(Acridin-9-yl)methyl]-2,4-dioxo-1,3-thiazolidin-5-ylidene]methyl}phenoxy)-N-[2-(trifluoromethyl)phenyl]acetamide]	> 50	–	–	> 50	256 to 257 °C (dec.)	22.3 ± 4.6	–	> 50	–	> 50	–	> 50	> 50	> 50	> 50

The next lines start with results.

IC50 [1] [µM]	IC50 ([3]; Homo sapiens, HCT-116, 48 h) [µM]	IC50 ([4]; Homo sapiens, HeLa, 48 h) [µM]	IC50 ([8]; Homo sapiens, A2780, 48 h) [µM]	melting point	IC50 [3] [µM]	IC50 [8] [µM]	IC50 [4] [µM]	SMILES	IC50 ([2]; Homo sapiens, PaTu 8902, 48 h) [µM]	IC50 [5] [µM]	IC50 [6] [µM]	IC50 [7] [µM]	IC50 [9] [µM]	IC50 ([6]; Homo sapiens, MCF-10A, 48 h) [µM]	IC50 [2] [µM]
> 50	–	21.8 ± 6.4	> 50	203 to 205 °C	36.3 ± 4.6	–	–	COc1cc(/C=C2\SC(=O)N(Cc3cccc4cc5ccccc5nc34)C2=O)ccc1OCC(=O)Nc1cccc(C(F)(F)F)c1 [Compound 13f, 2-(4-{[(5Z)-3-[(Acridin-4-yl)methyl]-2,4-dioxo-1,3-thiazolidin-5-ylidene]methyl}-2-methoxyphenoxy)-N-[3-(trifluoromethyl)phenyl]acetamide]	> 50	> 50	–	31.9 ± 4.1	> 50	28.9 ± 5.6	–
> 50	> 50	> 50	> 50	193 to 194 °C (dec.)	–	–	–	COc1cc(NC(=O)COc2ccc(/C=C3\SC(=O)N(Cc4cccc5cc6ccccc6nc45)C3=O)cc2)cc(OC)c1OC [Compound 8c, 2-(4-{[(5Z)-3-[(Acridin-4-yl)methyl]-2,4-dioxo-1,3-thiazolidin-5-ylidene]methyl}phenoxy)-N-(3,4,5-trimethoxyphenyl)acetamide]	> 50	> 50	–	> 50	> 50	> 50	–
> 50	–	43.3 ± 5.2	> 50	205 to 206 °C (dec.)	24.3 ± 3.8	–	–	O=C(COc1ccc(/C=C2\SC(=O)N(Cc3cccc4cc5ccccc5nc34)C2=O)cc1)Nc1ccccc1C(F)(F)F [Compound 8e, 2-(4-{[(5Z)-3-[(Acridin-4-yl)methyl]-2,4-dioxo-1,3-thiazolidin-5-ylidene]methyl}phenoxy)-N-[2-(trifluoromethyl)phenyl]acetamide]	> 50	> 50	–	> 50	> 50	> 50	–
> 50	–	18.7 ± 0.45	–	260 to 262 °C	> 50	> 50	–	COc1cc(/C=C2\SC(=O)N(Cc3c4ccccc4nc4ccccc34)C2=O)ccc1OCC(=O)Nc1ccccc1 [Compound 12a, 2-(4-{[(5Z)-3-[(Acridin-9-yl)methyl]-2,4-dioxo-1,3-thiazolidin-5-ylidene]methyl}-2-methoxyphenoxy)-N-phenylacetamide]	> 50	> 50	> 50	> 50	> 50	–	–
> 50	> 50	–	> 50	168 to 169 °C (dec.)	–	–	12 ± 2.8	COc1cc(NC(=O)COc2ccc(/C=C3\SC(=O)N(Cc4cccc5cc6ccccc6nc45)C3=O)cc2)cc(OC)c1 [Compound 8b, 2-(4-{[(5Z)-3-[(Acridin-4-yl)methyl]-2,4-dioxo-1,3-thiazolidin-5-ylidene]methyl}phenoxy)-N-(3,5-dimethoxyphenyl)acetamide]	> 50	> 50	–	> 50	> 50	> 50	–
38.9 ± 2.1	44.7 ± 4.1	25.7 ± 3.45	> 50	222 to 224 °C	–	–	–	COc1cc(NC(=O)COc2ccc(/C=C3\SC(=O)N(Cc4cccc5cc6ccccc6nc45)C3=O)cc2OC)cc(OC)c1 [Compound 13b, 2-(4-{[(5Z)-3-[(Acridin-4-yl)methyl]-2,4-dioxo-1,3-thiazolidin-5-ylidene]methyl}-2-methoxyphenoxy)-N-(3,5-dimethoxyphenyl)acetamide]	> 50	> 50	–	34.4 ± 2.45	41.7 ± 0.8	43.6 ± 3.3	–
> 50	–	17.7 ± 2.9	> 50	249 to 250 °C	24.9 ± 3.5	–	–	COc1cc(/C=C2\SC(=O)N(Cc3cccc4cc5ccccc5nc34)C2=O)ccc1OCC(=O)Nc1cc(C(F)(F)F)cc(C(F)(F)F)c1 [Compound 13g, 2-(4-{[(5Z)-3-[(Acridin-4-yl)methyl]-2,4-dioxo-1,3-thiazolidin-5-ylidene]methyl}-2-methoxyphenoxy)-N-[3,5-bis(trifluoromethyl)phenyl]acetamide]	> 50	> 50	–	> 50	> 50	> 50	–
